Assay results as given in ChEMBL document CHEMBL5352474, “Synthesis and in vitro antileishmanial activity of alkylene-linked nitrofurantoin-triazole hybrids” (Eur J Med Chem, 2023).
pIC50: −log10 of the molar value.

How the values were obtained:
Leishmania major [1] = assay: Antileishmanial activity against Leishmania major IR-173 promastigotes assessed as inhibition of parasite growth incubated for 48 hrs by resazurin dye based assay; format: functional, organism-based; conditions: IR-173, 48 h
[2] = Selectivity index, ratio of IC50 for cytotoxicity against HEK293 cells to IC50 for antileishmanial activity against Leishmania major IR-173 promastigotes; format: toxicity, cell-based; conditions: human, read-out: Ratio IC50
Leishmania major [3] = assay: Antileishmanial activity against Leishmania major IR-173 amastigote infected in human THP-1 cells assessed as static activity by measuring inhibition of parasite growth incubated for 72 hrs by resazurin dye based assay; format: functional, organism-based; conditions: IR-173, THP-1, 72 h
Leishmania donovani [4] = assay: Antileishmanial activity against Leishmania donovani 9515 amastigote infected in human THP-1 cells assessed as static activity by measuring inhibition of parasite growth incubated for 72 hrs by resazurin dye based assay; format: functional, organism-based; conditions: Leishmania donovani, 9515, THP-1, 72 h
[5] = Cytotoxicity against HEK293 cells assessed as inhibition of cell growth incubated for 48 hrs by resazurin dye based assay; format: toxicity; conditions: human
Leishmania major [6] = assay: Leishmanicidal activity against Leishmania major IR-173 amastigote infected in human THP-1 cells incubated for 72 hrs by resazurin dye based analysis; format: functional, organism-based; conditions: IR-173, THP-1, 72 h
Leishmania donovani [7] = assay: Antileishmanial activity against Leishmania donovani 9515 promastigotes assessed as inhibition of parasite growth incubated for 48 hrs by resazurin dye based assay; format: functional, organism-based; conditions: Leishmania donovani, 9515, 48 h
Leishmania donovani [8] = assay: Leishmanicidal activity against Leishmania donovani 9515 amastigote infected in human THP-1 cells incubated for 72 hrs by resazurin dye based analysis; format: functional, organism-based; conditions: Leishmania donovani, 9515, THP-1, 72 h
[9] = Selectivity index, ratio of IC50 for cytotoxicity against HEK293 cells to IC50 for antileishmanial activity against Leishmania donovani 9515 promastigotes; format: toxicity, cell-based; conditions: human, read-out: Ratio IC50

Compound	pIC50 (Leishmania major [1])	selectivity ratio [2]	pIC50 (Leishmania major [3])	pIC50 (Leishmania donovani [4])	IC50 at 48 h [5] [µM]	pIC50 (Leishmania major [6])	pIC50 (Leishmania donovani [7])	pIC50 (Leishmania donovani [8])	selectivity ratio [9]
O=C1CN(/N=C/c2ccc([N+](=O)[O-])o2)C(=O)N1CCCCCn1cc(-c2ccc(F)cc2)nn1	6.01	40	< 5.00	< 5.00	37.2	< 5.00	< 5.00	< 5.00	–
O=C1CN(/N=C/c2ccc([N+](=O)[O-])o2)C(=O)N1CCCCCn1cc(CSc2ccccc2)nn1	5.77	52	< 5.00	< 5.00	87.9	< 5.00	8.00	< 5.00	8790
O=C1CN(/N=C/c2ccc([N+](=O)[O-])o2)C(=O)N1CCCCCCn1cc(-c2cc(C(F)(F)F)cc(C(F)(F)F)c2)nn1	6.10	–	< 5.00	< 5.00	–	< 5.00	5.27	< 5.00	–
COc1ccc(-c2cn(CCCCCCN3C(=O)CN(/N=C/c4ccc([N+](=O)[O-])o4)C3=O)nn2)cc1	6.23	9	< 5.00	< 5.00	5.39	< 5.00	6.64	< 5.00	23
Cc1ccc(-c2cn(CCCCCCN3C(=O)CN(/N=C/c4ccc([N+](=O)[O-])o4)C3=O)nn2)cc1	6.18	47	< 5.00	< 5.00	31.1	< 5.00	6.01	< 5.00	32
CCCCCc1cn(CCCCCCN2C(=O)CN(/N=C/c3ccc([N+](=O)[O-])o3)C2=O)nn1	6.57	57	< 5.00	< 5.00	15.5	< 5.00	< 5.00	< 5.00	–
CCCCc1cn(CCCCCCN2C(=O)CN(/N=C/c3ccc([N+](=O)[O-])o3)C2=O)nn1	5.92	37	< 5.00	< 5.00	44.5	< 5.00	< 5.00	< 5.00	–
CCCCCCCCc1cn(CCCCCCN2C(=O)CN(/N=C/c3ccc([N+](=O)[O-])o3)C2=O)nn1	5.58	19	< 5.00	< 5.00	50.3	< 5.00	6.96	< 5.00	457
CCCCCCCCc1cn(CCCN2C(=O)CN(/N=C/c3ccc([N+](=O)[O-])o3)C2=O)nn1	6.14	16	< 5.00	< 5.00	11.5	< 5.00	< 5.00	< 5.00	–
CCCCCc1ccc(-c2cn(CCCN3C(=O)CN(/N=C/c4ccc([N+](=O)[O-])o4)C3=O)nn2)cc1	< 5.00	–	< 5.00	< 5.00	79.8	< 5.00	< 5.00	< 5.00	–
C[C@@H]1[C@H](O)[C@@H](C)/C=C/C=C/C=C/C=C/C=C/C=C/C=C/[C@H](O[C@@H]2O[C@H](C)[C@@H](O)[C@H](N)[C@@H]2O)C[C@@H]2O[C@](O)(C[C@@H](O)C[C@@H](O)[C@H](O)CC[C@@H](O)C[C@@H](O)CC(=O)O[C@H]1C)C[C@H](O)[C@H]2C(=O)O [AMPHOTERICIN B]	–	–	7.52	–	–	–	–	–	–
CC[C@H]1CN2CCc3cc(OC)c(OC)cc3[C@@H]2C[C@@H]1C[C@H]1NCCc2cc(OC)c(OC)cc21 [EMETINE]	–	–	–	–	0.01	–	–	–	–
